# Source: PubChem BioAssay (NCI)
# Where “and” joins values, the source holds several entries; their conditions need not be identical. Equal entries are not always repeated.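 Compound exposure: 48 hours, 5 concentrations, 96-well plates. Abbreviation: GI50, concentration required for 50% inhibition of growth. TGI: total growth inhibition.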
# How the values were obtained:
# Experiment in all cases: NCI anticancer screen, dose series, 48 h
# HL-60(TB) leukemia = system: HL-60(TB) leukemia
# SK-MEL-28 melanoma = system: SK-MEL-28 melanoma
# A498 renal = system: A498 renal
# SNB-75 CNS = system: SNB-75 CNS
# RXF 393 renal = system: RXF 393 renal
# 786-0 renal = system: 786-0 renal
# HT29 colon = system: HT29 colon
# TK-10 renal = system: TK-10 renal
# NCI-H226 lung = system: NCI-H226 lung
# NCI-H460 lung = system: NCI-H460 lung
SMILES,GI50 (HL-60(TB) leukemia),TGI (HL-60(TB) leukemia),GI50 (SK-MEL-28 melanoma),TGI (SK-MEL-28 melanoma),GI50 (A498 renal),TGI (A498 renal),GI50 (SNB-75 CNS),TGI (SNB-75 CNS),GI50 (RXF 393 renal),TGI (RXF 393 renal),GI50 (786-0 renal),TGI (786-0 renal),GI50 (HT29 colon),TGI (HT29 colon),GI50 (TK-10 renal),TGI (TK-10 renal),GI50 (NCI-H226 lung),TGI (NCI-H226 lung),GI50 (NCI-H460 lung),TGI (NCI-H460 lung)
CC(=O)C1=C(O)C=C2Oc3c(C(=O)/C=C/c4c(Cl)cccc4Cl)c(O)c(C)c(O)c3[C@]2(C)C1=O,849 nM,7.08 µM,1.32 µM,3.83 µM,1600 nM,3.66 µM,2120 nM,4.76 µM,2320 nM,5.03 µM,1710 nM,5.44 µM,1730 nM,6.23 µM,728 nM,5.17 µM,2.47 µM,5.14 µM,1170 nM,4.46 µM
COc1cc(-c2cc(O)c(-c3ccc4ccccc4n3)c(=O)[nH]2)cc(OC)c1OC,,35.3 µM,,> 100 µM,,> 100 µM,,46.1 µM,,> 82.8 µM,,> 69.6 µM,,> 73.1 µM,,> 100 µM,,> 77.6 µM,,> 80.6 µM
O=C(c1ccccc1)C(CN1CCCCC1)c1ccccc1 (centres undefined),1420 nM,3.86 µM,3.25 µM,11.4 µM,9330 nM,22 µM,3460 nM,15.4 µM,1420 nM,2.74 µM,1910 nM,3.45 µM,892 nM,5.67 µM,2920 nM,10.2 µM,3.67 µM,14.8 µM,10200 nM,26.1 µM
CC(C)=CCC[C@](C)(O)[C@H]1CC[C@]2(C)[C@@H]1CC[C@@H]1[C@@]3(C)CC/C(=N/O)C(C)(C)[C@@H]3CC[C@]12C,8690 nM,> 100 µM,26.5 µM,> 100 µM,51200 nM,> 100 µM,25400 nM,> 100 µM,8230 nM,38.4 µM,14300 nM,69.3 µM,3410 nM,20.8 µM,18000 nM,63.5 µM,9.75 µM,47.5 µM,5540 nM,> 100 µM
Cc1nc(-c2cn3c(n2)-c2ccc(-c4cnn(C(C)(C)C(N)=O)c4)cc2OCC3)n(C(C)C)n1,< 20.2 nM and 9.55 nM,25.8 µM and > 10 µM,0.535 µM and 0.414 µM,> 38.3 µM,143 nM and 274 nM,1.15 µM and 1.67 µM,20.4 nM and 14.2 nM,2.63 µM and > 2.63 µM,537 nM and 727 nM,4.61 µM and > 7.26 µM,1050 nM and 747 nM,> 100 µM,22.5 nM and 40.1 nM,17.1 µM and > 10 µM,72.2 nM and 48.9 nM,32.1 µM and > 10 µM,3.98 µM and 2.87 µM,97.4 µM and > 10 µM,111 nM and 169 nM,> 100 µM
COc1c2ccoc2c(OC)c2oc(=O)ccc12,,> 100 µM,,> 100 µM,,> 100 µM,,63.6 µM,,> 100 µM,,> 100 µM,,> 100 µM,,> 100 µM,,> 100 µM,,> 100 µM
Cc1nc2ccccc2c(/C=C/c2ccc(Cl)cc2)c1C(=O)/C=C/c1ccc(C(F)(F)F)cc1,360 nM,1.38 µM,0.369 µM,1.29 µM,1320 nM,2.62 µM,1280 nM,2.57 µM,322 nM,0.988 µM,330 nM,1.26 µM,165 nM,0.54 µM,1690 nM,3.09 µM,0.306 µM,0.911 µM,642 nM,1.89 µM
Nc1c(C(=O)Nc2cccc(F)c2)sc2nc3c(cc12)C(=O)CCC3,322 nM,> 100 µM,20.5 µM,> 100 µM,27.4 nM,> 100 µM,339 nM,> 56.5 µM,248 nM,,595 nM,> 100 µM,307 nM,> 100 µM,> 100000 nM,> 100 µM,> 90.1 µM,> 100 µM,356 nM,> 100 µM
CCN(CC)CCCNCc1cc(-c2ccccc2)nc2ccccc12,1620 nM,14.9 µM,10.2 µM,22.4 µM,12300 nM,41.3 µM,12300 nM,35.8 µM,6990 nM,39.9 µM,11100 nM,28.3 µM,2770 nM,10.6 µM,5090 nM,31.8 µM,19.8 µM,> 100 µM,33200 nM,> 100 µM
C[C@@]12CCC[C@@](C)(C(=O)O)C1CC[C@]13C[C@@](O)(CO)[C@](O)(CCC12)C3 (some centres undefined),> 100000 nM,> 100 µM,> 100 µM,> 100 µM,> 100000 nM,> 100 µM,> 100000 nM,> 100 µM,> 100000 nM,> 100 µM,> 100000 nM,> 100 µM,> 100000 nM,> 100 µM,> 100000 nM,> 100 µM,> 100 µM,> 100 µM,> 100000 nM,> 100 µM
